Consider 25 compounds from patent publication US20110257208A1, “COMPOUNDS USEFUL AS FAAH MODULATORS AND USES THEREOF” (priority 2008, published 2011).

Molecules are shown by their SMILES.

The target in this assay is T1, hFAAH (Homo sapiens, UniProt O00519).
T1 construct: expressed in transfected cells; host or cells: HEK293-TRex (Invitrogen) stably transfected with hFAAH in the pcDNA5-Tet-off vector, or T84 human colon epithelial cells (endogenous hFAAH); used as a microsomal preparation
T1 sequence (O00519 1-579): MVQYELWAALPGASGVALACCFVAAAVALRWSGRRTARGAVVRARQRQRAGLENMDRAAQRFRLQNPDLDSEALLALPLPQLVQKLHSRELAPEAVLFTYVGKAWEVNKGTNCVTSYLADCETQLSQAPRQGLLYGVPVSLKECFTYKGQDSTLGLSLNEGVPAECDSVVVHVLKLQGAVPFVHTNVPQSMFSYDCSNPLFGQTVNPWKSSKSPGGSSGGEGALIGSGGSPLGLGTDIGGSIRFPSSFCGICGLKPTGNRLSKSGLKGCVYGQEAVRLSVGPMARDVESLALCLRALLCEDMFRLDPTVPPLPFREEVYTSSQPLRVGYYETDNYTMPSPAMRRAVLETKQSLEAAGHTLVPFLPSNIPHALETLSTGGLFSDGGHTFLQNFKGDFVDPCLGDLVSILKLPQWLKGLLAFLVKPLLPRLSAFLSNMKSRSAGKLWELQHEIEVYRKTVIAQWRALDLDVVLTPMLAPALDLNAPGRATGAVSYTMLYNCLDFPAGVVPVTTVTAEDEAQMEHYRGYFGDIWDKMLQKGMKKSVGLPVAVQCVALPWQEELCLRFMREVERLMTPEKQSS
Kind of assay: Fluorimetric assay with hFAAH microsomes (enzymatic, fluorescence based). In kind it is biochemical. The following applies: compound at 1 uM, AA-AMC substrate. The protocol: Human cell line T84 (human colon epithelial cells), which expresses endogenous hFAAH, or HEK293-TRex cells (Invitrogen) stably transfected with hFAAH in the pcDNA5-Tet-off vector are cultured in medium containing DMEM, 10% FBS penicillin/streptomycin, glutamax, 200 μg/ml hygromycin and 0.5 μg/ml blasticidin. Cell collection is done 24 h after induction with doxycycline by first washing the cells with cold PBS and then incubating them with Versene before centrifugation. Cell pellets are then stored at −80° C. until needed. For homogenization, the cell pellets are thawed on ice […] and resuspended in homogenization buffer (50 mM HEPES (pH 7.4), 1 mM EDTA, 1 μM Pepstatin A, 100 μM Leupeptin, 0.1 mg/mL aprotinin). Cell suspensions are then homogenized on ice using the Polytron 1200 C at setting 6 for three 30-second intervals with 30-second rests. The suspension is centrifuged at 1000 g for 10 minutes at 4° C. and the supernatant is collected and further centrifuged at 24000 rpm for 30 minutes at 4° C. using an ultracentrifuge. Pellets are resuspended by adding in cold microsomal buffer (50 mM HEPES (pH 7.4) and 1 mM EDTA) and sheared through a 23-gauge needle five times, keeping the suspension on ice. Protein concentrations are determined using the BCA assay and aliquoted preparations are stored at −80° C. until needed.
Compound potency against hFAAH is determined using an enzymatic assay with a fluorescence readout. Briefly, experiments were carried out in a 96-well plate format (Corning Costar, # 3370) with a total well volume of 160 μL with components added in the following order: assay buffer (50 mM HEPES (pH 7.4), 1 mM EDTA, 1.4 mg/mL BSA), compound solutions (7 different concentrations per compound in duplicate), microsomal enzyme preparation (10 μg per well) and substrate [AA-AMC (arachadonyl 7-amino 4-methyl coumarin amide), 2 μM]. After a brief shaking, a kinetic read of the plate is obtained using a Tecan Safire II in kinetic mode for 275 cycles with excitation and emission wavelengths of 355 and 460 nm, respectively. Raw data is then processed and analyzed using Assay Explorer and GraphPad Prism.
The following compounds have been or can be prepared according to the methods of the invention. An enzymatic (fluorescence based) assay is performed as described above. In Table 1, activity of each compound is expressed as follows: • ++++ % Inhibition >75% • +++ % Inhibition >50% • ++ % Inhibition >25% • + % Inhibition <25%
Regarding `CC(C)(C)OC(=O)N1Cc2ncnc(Nc3cnc4ccccc4c3)c2C1` [Compound 45, 4-(Quinolin-3-ylamino)-5,7-dihydro-pyrrolo[3,4-d]pyrimidine-6-carboxylic acid tert-butyl ester], the inhibition (usually the relative decrease from the control value, in per cent) at 1 µM is more than 50%.

Compound `O=C(NCC1CCCCC1)N1Cc2ncnc(Nc3cnc4ccccc4c3)c2C1` [Compound 46, 4-(Quinolin-3-ylamino)-5,7-dihydro-pyrrolo[3,4-d]pyrimidine-6-carboxylic acid cyclohexylmethyl-amide] yielded an inhibition at 1 µM of less than 25%.

For the compound `O=C(NC1CCCCC1)N1Cc2ncnc(Nc3cnc4ccccc4c3)c2C1` [Compound 47, 4-(Quinolin-3-ylamino)-5,7-dihydro-pyrrolo[3,4-d]pyrimidine-6-carboxylic acid cyclohexylamide], the inhibition at 1 µM is less than 25%.

Compound `Cc1nc(C)c(CNC(=O)N2Cc3ncnc(Nc4cnc5ccccc5c4)c3C2)s1` [Compound 48, 4-(Quinolin-3-ylamino)-5,7-dihydro-pyrrolo[3,4-d]pyrimidine-6-carboxylic acid (2,4-dimethyl-thiazol-5-ylmethyl)-amide] had an inhibition at 1 µM of less than 25%.

For the compound `Cc1nc(C)c(C(=O)N2Cc3ncnc(Nc4cnc5ccccc5c4)c3C2)s1` [Compound 49, (2,4-Dimethyl-thiazol-5-yl)-[4-(quinolin-3-ylamino)-5,7-dihydro-pyrrolo[3,4-d]pyrimidin-6-yl]-methanone], the inhibition at 1 µM is more than 50%.

Compound `Cc1nc(C)c(CC(=O)N2Cc3ncnc(Nc4cnc5ccccc5c4)c3C2)s1` [Compound 50, 2-(2,4-Dimethyl-thiazol-5-yl)-1-[4-(quinolin-3-ylamino)-5,7-dihydro-pyrrolo[3,4-d]pyrimidin-6-yl]-ethanone] displayed an inhibition at 1 µM of less than 25%.

In turn, `Cc1nc(C)c(NC(=O)N2Cc3ncnc(Nc4cnc5ccccc5c4)c3C2)s1` [Compound 51, 4-(Quinolin-3-ylamino)-5,7-dihydro-pyrrolo[3,4-d]pyrimidine-6-carboxylic acid (2,4-dimethyl-thiazol-5-yl)-amide] showed an inhibition at 1 µM of less than 25%.

In turn, `O=C(CN1CCCCCC1)N1Cc2ncnc(Nc3cnc4ccccc4c3)c2C1` [Compound 52, 2-Azepan-1-yl-1-[4-(quinolin-3-ylamino)-5,7-dihydro-pyrrolo[3,4-d]pyrimidin-6-yl]-ethanone] came in with an inhibition at 1 µM of less than 25%.

Turning to `O=C(CN1CCCCC1)N1Cc2ncnc(Nc3cnc4ccccc4c3)c2C1` [Compound 53, 2-Piperidin-1-yl-1-[4-(quinolin-3-ylamino)-5,7-dihydro-pyrrolo[3,4-d]pyrimidin-6-yl]-ethanone], the inhibition at 1 µM was less than 25%.

`O=C(CN1CCCC1)N1Cc2ncnc(Nc3cnc4ccccc4c3)c2C1` [Compound 54, 2-Pyrrolidin-1-yl-1-[4-(quinolin-3-ylamino)-5,7-dihydro-pyrrolo[3,4-d]pyrimidin-6-yl]-ethanone] displayed an inhibition at 1 µM of less than 25%.

`O=S(=O)(c1ccc(-c2cnco2)s1)N1Cc2ncnc(Nc3cnc4ccccc4c3)c2C1` [Compound 55, [6-(5-Oxazol-5-yl-thiophene-2-sulfonyl)-6,7-dihydro-5H-pyrrolo[3,4-d]pyrimidin-4-yl]-quinolin-3-yl-amine] had an inhibition at 1 µM of more than 25%.

Turning to `Cc1ccsc1S(=O)(=O)N1Cc2ncnc(Nc3cnc4ccccc4c3)c2C1` [Compound 56, [6-(3-Methyl-thiophene-2-sulfonyl)-6,7-dihydro-5H-pyrrolo[3,4-d]pyrimidin-4-yl]-quinolin-3-yl-amine], the inhibition at 1 µM was more than 25%.

The compound `O=S(=O)(C1CCCC1)N1Cc2ncnc(Nc3cnc4ccccc4c3)c2C1` [Compound 57, (6-Cyclopentanesulfonyl-6,7-dihydro-5H-pyrrolo[3,4-d]pyrimidin-4-yl)-quinolin-3-yl-amine] gave an inhibition at 1 µM of more than 25%.

Turning to `O=S(=O)(c1ccc(F)cc1F)N1Cc2ncnc(Nc3cnc4ccccc4c3)c2C1` [Compound 58, [6-(2,4-Difluoro-benzenesulfonyl)-6,7-dihydro-5H-pyrrolo[3,4-d]pyrimidin-4-yl]-quinolin-3-yl-amine], the inhibition at 1 µM is more than 25%.

`Cc1ccccc1S(=O)(=O)N1Cc2ncnc(Nc3cnc4ccccc4c3)c2C1` [Compound 59, Quinolin-3-yl-[6-(toluene-2-sulfonyl)-6,7-dihydro-5H-pyrrolo[3,4-d]pyrimidin-4-yl]-amine] registered an inhibition at 1 µM of more than 75%.

For the compound `Cn1nccc1S(=O)(=O)N1Cc2ncnc(Nc3cnc4ccccc4c3)c2C1` [Compound 60, [6-(2-Methyl-2H-pyrazole-3-sulfonyl)-6,7-dihydro-5H-pyrrolo[3,4-d]pyrimidin-4-yl]-quinolin-3-yl-amine], the inhibition at 1 µM is more than 50%.

Consider `Cc1nc(C)c(S(=O)(=O)N2Cc3ncnc(Nc4cnc5ccccc5c4)c3C2)s1` [Compound 61, [6-(2,4-Dimethyl-thiazole-5-sulfonyl)-6,7-dihydro-5H-pyrrolo[3,4-d]pyrimidin-4-yl]-quinolin-3-yl-amine], for which the inhibition at 1 µM is more than 50%.

The compound `COC(=O)c1cc(S(=O)(=O)N2Cc3ncnc(Nc4cnc5ccccc5c4)c3C2)oc1C` [Compound 62, 2-Methyl-5-[4-(quinolin-3-ylamino)-5,7-dihydro-pyrrolo[3,4-d]pyrimidine-6-sulfonyl]-furan-3-carboxylic acid methyl ester] yielded an inhibition at 1 µM of more than 25%.

In the case of `O=S(=O)(Cc1ccccc1)N1Cc2ncnc(Nc3cnc4ccccc4c3)c2C1` [Compound 63, (6-Phenylmethanesulfonyl-6,7-dihydro-5H-pyrrolo[3,4-d]pyrimidin-4-yl)-quinolin-3-yl-amine], the inhibition at 1 µM is less than 25%.

Consider `O=S(=O)(C1CCCCC1)N1Cc2ncnc(Nc3cnc4ccccc4c3)c2C1` [Compound 64, (6-Cyclohexanesulfonyl-6,7-dihydro-5H-pyrrolo[3,4-d]pyrimidin-4-yl)-quinolin-3-yl-amine], for which the inhibition at 1 µM is more than 50%.

`O=S(=O)(c1ccccc1)N1Cc2ncnc(Nc3cnc4ccccc4c3)c2C1` [Compound 65, (6-Benzenesulfonyl-6,7-dihydro-5H-pyrrolo[3,4-d]pyrimidin-4-yl)-quinolin-3-yl-amine] displayed an inhibition at 1 µM of more than 25%.

In turn, `Cc1ncsc1CN1Cc2ncnc(Nc3cnc4ccccc4c3)c2C1` [Compound 66, [6-(4-Methyl-thiazol-5-ylmethyl)-6,7-dihydro-5H-pyrrolo[3,4-d]pyrimidin-4-yl]-quinolin-3-yl-amine] gave an inhibition at 1 µM of more than 75%.

The compound `Cc1noc(C)c1CN1Cc2ncnc(Nc3cnc4ccccc4c3)c2C1` [Compound 67, [6-(3,5-Dimethyl-isoxazol-4-ylmethyl)-6,7-dihydro-5H-pyrrolo[3,4-d]pyrimidin-4-yl]-quinolin-3-yl-amine] displayed an inhibition at 1 µM of more than 25%.

`COC(=O)c1ccc(S(=O)(=O)N2Cc3ncnc(Nc4cnc5ccccc5c4)c3C2)o1` [Compound 68, 5-[4-(Quinolin-3-ylamino)-5,7-dihydro-pyrrolo[3,4-d]pyrimidine-6-sulfonyl]-furan-2-carboxylic acid methyl ester] showed an inhibition at 1 µM of more than 75%.

Compound `Cc1ncc(CN2Cc3ncnc(Nc4cnc5ccccc5c4)c3C2)s1` [Compound 69, [6-(2-Methyl-thiazol-5-ylmethyl)-6,7-dihydro-5H-pyrrolo[3,4-d]pyrimidin-4-yl]-quinolin-3-yl-amine] returned an inhibition at 1 µM of more than 50%.
